The values that follow come from PubChem BioAssay (NCI).

The structures appear in SMILES notation.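 How tested: cells in 96-well plates exposed to compound for 48 hours at five concentrations. At the TGI there is no net growth.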

Some test systems named below: IGROV1 ovarian; NCI-H522 lung; HOP-92 NSCLC; NCI-H226 lung; NCI-H460 lung; RPMI-8226 leukemia; SW-620 colon; SN12C renal.
What all share (assay): DTP human tumour cell line panel, 48 h

A word on the TGI: it is the concentration giving total growth inhibition. Low values mean more potent growth arrest, high ones less potent growth arrest. Turning to `COc1ccc(C(=O)CC2=Nc3nnc(CCCCCCCc4nnc5n4C(=O)C(CC(=O)c4ccc(OC)cc4)=N5)n3C2=O)cc1`, the TGI in the test on IGROV1 ovarian, in the test on NCI-H522 lung, in the test with HOP-92 NSCLC, with NCI-H226 lung, in the test on NCI-H460 lung and in the test with RPMI-8226 leukemia was over 100 µM throughout. Also, the TGI in the test with SW-620 colon and with SN12C renal was over 100 µM throughout.

As for `COc1cc(NS(C)(=O)=O)ccc1NCc1c2ccccc2nc2ccccc12`, the TGI with IGROV1 ovarian was over 100 µM; in the test with NCI-H522 lung, 77.3 µM; in the test with HOP-92 NSCLC, 92.7 µM; with NCI-H226 lung it was over 100 µM; with NCI-H460 lung, over 100 µM; in the test with RPMI-8226 leukemia it was 71.1 µM. Further, the TGI in the test on SW-620 colon and in the test with SN12C renal was over 100 µM throughout.

As for `COC(=O)C1CC(OC(C)=O)C=C2C(=O)CCC21` (centres undefined), the TGI was 82.6 µM with IGROV1 ovarian; 3.75 µM with NCI-H522 lung; over 100 µM with NCI-H226 lung; 35.2 µM in the test with NCI-H460 lung; 57.7 µM in the test on RPMI-8226 leukemia; 39.4 µM with SW-620 colon. In the test on SN12C renal, this compound yielded a TGI of 41.9 µM.

For the compound `COC(=O)C(CC(=O)Nc1ccc(Cl)c(Cl)c1)C(=O)C(=O)Nc1ccc(Cl)c(Cl)c1` (centres undefined), the TGI in the test with IGROV1 ovarian, with NCI-H522 lung, in the test on HOP-92 NSCLC, in the test with NCI-H226 lung, in the test on NCI-H460 lung and in the test with RPMI-8226 leukemia was over 100 µM throughout. The total growth inhibition concentration (TGI) in the test with SW-620 colon and with SN12C renal was over 100 µM throughout.

Take `COc1ccc2oc(-c3ccc(OC)c(OC)c3OC)cc(=O)c2c1`: the TGI with IGROV1 ovarian is over 100 µM; in the test on NCI-H522 lung, 68.3 µM; with HOP-92 NSCLC, over 100 µM; in the test on NCI-H226 lung it was 81.1 µM; with RPMI-8226 leukemia, 43 µM; with SW-620 colon, over 100 µM. For the same compound, in the test with SN12C renal, the TGI is over 100 µM.

Turning to `Cc1cccc(C)c1N1C(=O)C(=O)C(c2nc3ccccc3s2)/C(=N/NC(=O)c2ccccc2O)C1=O` (centres undefined), the TGI in the test on IGROV1 ovarian was over 82.2 µM; in the test with NCI-H522 lung it was 39.6 µM; with HOP-92 NSCLC it was over 67.5 µM; in the test with NCI-H226 lung it was 56.5 µM; in the test with NCI-H460 lung, over 92 µM; in the test with RPMI-8226 leukemia it was over 69.2 µM. Further, the TGI in the test with SW-620 colon and in the test with SN12C renal was over 100 µM throughout.

Turning to `N#CC(C#N)=Cc1ccc(CP(=O)(O)O)cc1`, the TGI in the test on IGROV1 ovarian, with NCI-H522 lung, in the test on HOP-92 NSCLC, in the test with NCI-H226 lung, in the test on NCI-H460 lung and in the test on RPMI-8226 leukemia was over 100 µM each time. Further, the concentration for total growth inhibition (TGI) in the test on SW-620 colon and in the test with SN12C renal was over 100 µM each time.

Regarding `COc1cc(C(C)c2cc3c(cc2OCCNC(=O)COc2cc4c(cc2C(C)c2cc(OC)c(OC)c(OC)c2)OCO4)OCO3)cc(OC)c1OC` (centres undefined), the TGI in the test on IGROV1 ovarian was over 100 µM; in the test on NCI-H522 lung, 92.6 µM; in the test with NCI-H226 lung, over 100 µM; in the test on NCI-H460 lung it was 49 µM; with SW-620 colon it was over 100 µM; in the test on SN12C renal it was over 100 µM.

Turning to `O=C(Nc1ccccc1-c1nn(CN2CCNCC2)c(=S)n(CN2CCNCC2)c1=O)C(F)(F)F`, the TGI in the test on IGROV1 ovarian was 46.5 µM; in the test on HOP-92 NSCLC it was 45.8 µM; with NCI-H226 lung, 40.7 µM; in the test with NCI-H460 lung it was 53.3 µM; in the test on SW-620 colon it was 22.2 µM; with SN12C renal, 46.1 µM.

Regarding `Cc1ccc2nc3cc(C)c(=O)cc-3sc2c1`, the TGI in the test with IGROV1 ovarian, in the test on NCI-H522 lung, with HOP-92 NSCLC, in the test on NCI-H226 lung, in the test with NCI-H460 lung and in the test on SW-620 colon was over 100 µM throughout. The TGI with SN12C renal is over 100 µM.

As to `Cc1nc(N)nc(N)c1CCCc1ccccc1`, the TGI in the test with IGROV1 ovarian is over 100 µM; in the test with NCI-H522 lung, over 100 µM; in the test with HOP-92 NSCLC, 46.6 µM; in the test with NCI-H226 lung, over 100 µM; with NCI-H460 lung, over 100 µM; in the test on RPMI-8226 leukemia, over 100 µM. Besides, the TGI with SW-620 colon was over 100 µM; with SN12C renal it was 51.9 µM.

For `O=C1CNC(=O)c2[nH]cnc2N1`, the TGI in the test with IGROV1 ovarian, in the test with NCI-H226 lung, in the test on NCI-H460 lung, in the test with RPMI-8226 leukemia, in the test with SW-620 colon and in the test with SN12C renal was over 100 µM throughout.

Take `Cc1ccc(S(=O)(=O)c2ccc(C)cc2[N+](=O)[O-])cc1`: the TGI in the test on IGROV1 ovarian, with NCI-H522 lung, with HOP-92 NSCLC, with NCI-H226 lung, with NCI-H460 lung and with RPMI-8226 leukemia was over 100 µM in each case. Moreover, the TGI in the test with SW-620 colon and in the test on SN12C renal was over 100 µM each time.

Take `N/N=C(\c1nc2ccc(Cl)cc2[nH]c1=O)C(O)c1ccc(Cl)c(Cl)c1` (centres undefined): the TGI with IGROV1 ovarian, in the test with NCI-H522 lung, in the test on HOP-92 NSCLC, in the test on NCI-H226 lung, in the test with NCI-H460 lung and with RPMI-8226 leukemia was over 100 µM in each case. Besides, the TGI with SW-620 colon and in the test with SN12C renal was over 100 µM each time.

For `CCn1c2c(c3ccccc31)[C@@H](c1ccc(Cl)cc1)CC1C(=O)N(c3ccccc3)C(=O)C21` (some centres undefined), the concentration for total growth inhibition (TGI) was over 100 µM with IGROV1 ovarian; over 100 µM with NCI-H522 lung; 90.5 µM in the test on HOP-92 NSCLC; over 100 µM in the test with NCI-H226 lung; over 100 µM in the test with NCI-H460 lung; over 100 µM with RPMI-8226 leukemia. Also, the total growth inhibition concentration (TGI) in the test with SW-620 colon and in the test on SN12C renal was over 100 µM throughout.

`C1CN(P2(N3CC3)=NP(N3CC3)(N3CC3)=NP(N3CC3)(N3CC3)=N2)CCO1` (centres undefined): the TGI in the test with IGROV1 ovarian, in the test on NCI-H522 lung, with HOP-92 NSCLC, with NCI-H226 lung, in the test on NCI-H460 lung and in the test on RPMI-8226 leukemia was over 100 µM each time. In addition, the TGI with SW-620 colon and in the test on SN12C renal was over 100 µM in each case.
